Assay results reported in patent US9364496B2 (ONCOGENEX TECHNOLOGIES INC., priority 2013, dated 2016).
Several values for one entry are separate records, joined by “and”; a condition that tells them apart may be missing. Equal values may be shown once. Marks after values point to notes of the source that are not given here. Oligonucleotides are written 5' to 3', each unit as a sugar letter and its base; * is a phosphorothioate linkage, no mark a phosphodiester; rarer units and linkages stand in square brackets, end groups in braces. Plain capitals give the bases only. e = 2'-O-(2-methoxyethyl) (MOE); [5mC] = 5-methylcytosine; d = 2'-deoxy (DNA)

System: RPMI 8226 (human myeloma) xenograft
Test: In vivo activity of custirsen with Velcade, RPMI 8226 xenograft (Example 14)
Conditions: for % of baseline / Δ %: weight
Method: The cells were implanted subcutaneously into female SCID mice with 7×10^6 cells inoculum.
Tumors and body weights were measured weekly until termination of the study on day 71. Response to treatment was evaluated for tumor growth inhibition (TGI) and tumor growth delay (TGD).
70 CB.17 SCID female mice, 4-6 weeks old, 16-20 grams, obtained from Harlan animal breeding center.
Sample from the cell suspension was taken for counting (0.3 ml in duplicates for CEDEX) before spun down. Cell viability was 85.6% and live cell concentration was 167×10^5 cells/ml. The pellet was resuspended in HBSS to a final volume of 8 ml.
Tumors were implanted subcutaneously with RPMI-8226 cells into the right flank of the mouse on Day 0. Each animal received a s.c. injection 7×10^6 cells in 0.1 ml suspension. On day 20, mice were sorted by the optimal tumor volume ([…]) and were allocated into 5 groups of 10 mice. Mice were individually tagged and their tumor volume and body weight were monitored weekly during the study. Tumor size was measured by caliper and calculated using the formula: […]
The treatment started on […] (0.2 ml per 20 grams v/w) and continued till day 52, after which the remaining mice were left for observation until day 71.

[1] = Custirsen 40 mg/kg ip qd*5, twk, day 51
[2] = OGX 40 ip qd*5, twk, Day 48, group mean
[3] = OGX 40 ip qd*5, twk, Day 48, individual mice, listed as OGX
[4] = OGX 40 ip qd*5, twk, Day 51, group mean
[5] = OGX 40 ip qd*5, twk, Day 51, individual mice, listed as OGX
[6] = OGX 40 ip qd*5, twk, Day 58, individual mice, listed as OGX
[7] = OGX 40 ip qd*5, twk, Day 63, individual mice, listed as OGX
[8] = OGX 40 ip qd*5, twk, earlier day (day not given), group mean
[9] = OGX 40 ip qd*5, twk, earlier day (day not given), group mean, tumor
[10] = OGX 40 ip qd*5, twk, earlier day (day not given), individual mouse, listed as OGX
[11] = OGX 40 ip qd*5, twk, earlier day (day not given), individual mouse, tumor, listed as OGX
[12] = OGX 40 ip qd*5, twk, group Mean, n 9
[13] = OGX 40 ip qd*5, twk, group Mean, n 9, vs Day 20

With “Custirsen: anti-clusterin antisense oligonucleotide CAGCAGCAGAGTCTTCATCAT, phosphorothioate backbone, 2′-O-methoxyethyl at nucleotides 1-4 and 18-21, 5-methylcytosines at 1, 4, 19 (antisense e[5mC]*eA*eG*e[5mC]*dA*dG*dC*dA*dG*dA*dG*dT*dC*dT*dT*dC*dA*eT*e[5mC]*eA*eT; listed as Homo sapiens)” the “Max BW (mean) reduction” value (Custirsen 40 mg/kg ip qd*5, twk, day 34) was −4.7%, the “% TGI day 51” value [1] was 46* % and the “No. of CR” value [1] was 0. The “No. of PR” value [1] was 0, the “No. of TRD” value [1] was 1 and the “No. og nTRD” value [1] was 0. The “Δ mean tumor volume, (mean ± se)” value [1] was 667 ± 87, the “% TGI day 51” value (Custirsen 40 mg/kg ip qd*5, twk, day 51, listed as Custersin) was 46% and the volume [2] was 649.2. The weight [2] was 19.8, the “Δ % (weight)” value [2] was 5.3% and the Δ volume [2] was 503.8. The Δ weight [2] was 1.0, the “% of baseline (weight)” value [3] was 105.6% and 110.6% and 103.7% and 103.8% and 102.1% and 113.0% and 103.2% and 101.2% and the volume [3] was 495 and 354 and 689 and 763 and 717 and 1076 and 483 and 593 and 671. The weight [3] was 18.73 and 18.93 and 21.36 and 20.43 and 19.03 and 20.83 and 20.79 and 18.98 and 19.13, the “Δ % (weight)” value [3] was 5.6% and 10.6% and 3.7% and 3.8% and 2.1% and 13.0% and 4.2% and 3.2% and 1.2% and the Δ volume [3] was 371.9 and 229.1 and 550.6 and 621.8 and 571.9 and 925.7 and 329.0 and 431.2 and 502.7. For the same substance, the Δ weight [3] was 1.0 and 1.8 and 0.8 (3×) and 0.4 and 2.4 and 0.6 and 0.2, the volume [4] was 812.8 and the weight [4] was 19.8. For the same substance, the “Δ % (weight)” value [4] was 5.3%, the Δ volume [4] was 667.3 and the Δ weight [4] was 1.0. For the same substance, the “% of baseline (weight)” value [5] was 103.8% and 109.8% and 102.5% and 102.7% and 114.2% and 100.4%, the volume [5] was 687 and 392 and 817 and 923 and 1031 and 1324 and 603 and 734 and 804 and the weight [5] was 18.40 and 18.79 and 21.71 and 20.17 and 19.13 and 21.06 and 20.78 and 18.47 and 19.87. For the same substance, the “Δ % (weight)” value [5] was 3.8% and 9.8% and 5.4% and 2.5% and 2.7% and 14.2% and 4.2% and 0.4% and 5.1%, the Δ volume [5] was 563.6 and 267.5 and 678.0 and 781.6 and 885.6 and 1173.4 and 448.7 and 571.8 and 635.5 and the Δ weight [5] was 0.7 and 1.7 and 1.1 and 0.5 (2×) and 2.6 and 0.8 and 0.1 and 1.0. The “% of baseline (weight)” value [6] was 105.6% and 110.0% and 108.4%, the volume [6] was 797 and 560 and 1319 and the weight [6] was 18.72 and 18.84 and 22.31. For the same substance, the “Δ % (weight)” value [6] was 5.6% and 10.0% and 8.4%, the Δ volume [6] was 673.0 and 435.6 and 1180.5 and the Δ weight [6] was 1.0 and 1.7 (2×). The “% of baseline (weight)” value [7] was 112.4% and 108.7%, the volume [7] was 1127 and 848 and 2000 and the weight [7] was 18.57 and 19.25 and 22.39. The “Δ % (weight)” value [7] was 4.7% and 12.4% and 8.7%, the Δ volume [7] was 1003.4 and 723.2 and 1861.0 and the Δ weight [7] was 0.8 and 2.1 and 1.8. The weight [8] was 20.3, the Δ weight [8] was 1.5 and the volume [9] was 1278.9. The Δ volume [9] was 1133.5, the “% of baseline” value [8] was 108.0% and the Δ % [8] was 8.0%. For the same substance, the weight [10] was 20.77 and 19.53 and 21.42 and 21.45 and 19.51 and 20.43, the Δ weight [10] was 1.1 (2×) and 0.9 and 3.0 and 1.5 (2×) and the volume [11] was 1418 and 1693 and 1970 and 1060 and 1218 and 1475. The Δ volume [11] was 1277.2 and 1547.4 and 1819.3 and 905.2 and 1056.5 and 1306.4, the “% of baseline” value [10] was 116.2% and 107.5% and 108.1% and the Δ % [10] was 5.5% and 4.8% and 16.2% and 7.5% and 6.0% and 8.1%. For the same substance, the “Day 41 % of baseline (weight)” value [12] was 101.5%, the “Day 41 volume” value [12] was 395.4 and the “Day 41 weight” value [12] was 19.1. For the same substance, the “Day 45 volume” value [12] was 527.3, the “Day 45 weight” value [12] was 19.9 and the “Day 41 Δ % (weight)” value [13] was 1.5%. The “Day 41 Δ volume” value [13] was 249.9, the “Day 41 Δ weight” value [13] was 0.3 and the “Day 45 Δ % (weight)” value [13] was 5.6%.
